In patent publication US20260138988A1, “Spiropyrrolidine Derived Antiviral Agents” (Enanta Pharmaceuticals, Inc., priority 2021, published 2026) one finds IC50 and EC50 data, which are given here for 34 molecules.

By IC50 is commonly meant the concentration needed to halve the response being measured. The term EC50 denotes the midpoint of the concentration-response curve.

In experiment [1] the target is SARS-CoV-2 3CL-protease (Severe acute respiratory syndrome coronavirus 2, UniProt P0DTD1). As to the kind of experiment: SARS-CoV-2 3C-Like (3CL) Protease Fluorescence Assay (FRET). The following applies: test compounds 0-10 μM, duplicate. The class given is biochemical.
For experiment [2], the system named is 229E human corona virus (hCoV). As to the kind of experiment: 229E live virus assay (MRC-5 cells, CPE, ATPlite readout). The class given is cell-based, hCoV-229E. Particulars: Human coronavirus 229E, MRC5, 144 h, read-out: 229E EC50. A general note: ATP-based viability assays read luminescence as a measure of living cells.
Setting [3] is: SARS-CoV-2 3CL-protease 10 nM, read-out: IC50.
The mark [4] stands for this setting: hCoV-229E in MRC-5 cells, MOI 0.05, 6 days at 34° C., ATPlite, run in duplicate.
The mark [5] stands for this setting: IC50, SARS-CoV-2 3CL-protease 10 nM.

Each structure is given as a SMILES string. Where two headings read alike, the source gives them in different places.

As to `CC(C)C[C@@H](C(=O)N1C[C@]2(C[C@H]1C#N)C(=O)Nc1ccccc12)N(C)C(=O)[C@H](C)NC(=O)c1ccc(-c2ccc(F)cc2)cc1F` [Example 149], the half-maximal inhibitory concentration (IC50) in experiment [1] (setting [3]) was under 100 nM. For the same molecule, in experiment [2] (setting [4]), the 50% effective concentration (EC50) is under 100 nM.
With `CC(C)(C)C(NC(=O)OCc1ccccc1)C(=O)N1CCC[C@H]1C(=O)N1C[C@]2(C[C@H]1C#N)C(=O)Nc1ccccc12` (some centres unmarked) [Example 55], the IC50 in experiment [1] (setting [5]) fell in the range of 100 to 1000 nM. The concentration giving a half-maximal response (EC50) in experiment [2] is over 1000 nM.
For `C[C@H](NC(=O)C(F)(F)C(F)(F)F)C(=O)N(C)[C@@H](CC(C)(C)C)C(=O)N1C[C@]2(C[C@H]1C#N)C(=O)Nc1ccccc12` [Example 133], in experiment [1] (setting [5]), the IC50 was under 100 nM. For the same molecule, the concentration for a half-maximal effect (EC50) in experiment [2] (setting [4]) was under 100 nM.
As to `CC(C)C[C@@H](C(=O)N1C[C@]2(C[C@H]1C#N)C(=O)Nc1ccccc12)N(C)C(=O)[C@H](C)NC(=O)c1ccc(F)c(F)c1` [Example 165], the IC50 in experiment [1] (setting [3]) was under 100 nM. In addition, in experiment [2] (setting [4]), the EC50 was under 100 nM.
Turning to `CC(C)C[C@@H](C(=O)N1C[C@]2(C[C@H]1C#N)C(=O)Nc1ccccc12)N(C)C(=O)[C@H](C)NC(=O)c1ccc(F)c(-c2ccc(F)cc2)c1` [Example 151], in experiment [1] (setting [3]), the half-inhibitory concentration (IC50) is under 100 nM. Besides, in experiment [2] (setting [4]), the EC50 is 100 to 1000 nM.
Turning to `CC(C)C[C@@H](C(=O)N1C[C@]2(C[C@H]1C#N)C(=O)Nc1ccccc12)N(C)C(=O)[C@H](C)NC(=O)C(F)(F)F` [Example 135], the half-maximal effective concentration (EC50) in experiment [2] (setting [4]) is under 100 nM.
For `Cc1ncc(C(=O)N[C@@H](C)C(=O)N(C)[C@@H](CC(C)C)C(=O)N2C[C@]3(C[C@H]2C#N)C(=O)Nc2ccccc23)s1` [Example 163], in experiment [1] (setting [3]), the IC50 was under 100 nM. Also, the concentration giving a half-maximal response (EC50) in experiment [2] (setting [4]) is under 100 nM.
With `CC(C)C[C@@H](C(=O)N1C[C@]2(C[C@H]1C#N)C(=O)Nc1ccccc12)N(C)C(=O)[C@@H]1CCCN1C` [Example 160], in experiment [1] (setting [3]), the 50% inhibitory concentration (IC50) is under 100 nM. Also, the EC50 in experiment [2] (setting [4]) was under 100 nM.
In the case of `C[C@H](NC(=O)c1ccc(F)cc1F)C(=O)N(C)[C@@H](CC(C)(C)C)C(=O)N1C[C@]2(C[C@H]1C#N)C(=O)Nc1ccccc12` [Example 154], in experiment [1] (setting [3]), the IC50 is under 100 nM. Further, the EC50 in experiment [2] (setting [4]) was under 100 nM.
In turn, `CC(C)[C@H](NS(=O)(=O)c1ccc(F)cc1)C(=O)N(C)[C@@H](CC(C)(C)C)C(=O)N1C[C@]2(C[C@H]1C#N)C(=O)Nc1ccccc12` [Example 111] registered a 50% inhibitory concentration (IC50) in experiment [1] (setting [5]) of under 100 nM. In addition, in experiment [2], the EC50 fell in the range of 100 to 1000 nM.
As for `CC(C)C[C@@H](C(=O)N1C[C@]2(C[C@H]1C#N)C(=O)Nc1ccccc12)N(C)C(=O)[C@@H]1CCCN1C(C)C` [Example 161], the IC50 in experiment [1] (setting [3]) is under 100 nM. Besides, the EC50 in experiment [2] (setting [4]) was under 100 nM.
As for `[2H]C([2H])([2H])N(C(=O)[C@H](CC1CC1)NC(=O)c1ccc(F)cc1)[C@@H](CC1CC1)C(=O)N1C[C@]2(C[C@H]1C#N)C(=O)Nc1ccccc12` [Example 140], in experiment [1] (setting [3]), the IC50 was under 100 nM. Further, the EC50 in experiment [2] (setting [4]) was under 100 nM.
In the case of `CC(C)C[C@@H](C(=O)N1C[C@]2(C[C@H]1C#N)C(=O)Nc1ccccc12)N(C)C(=O)[C@H](C)NC(=O)C(F)(F)C(F)(F)F` [Example 136], the half-maximal inhibitory concentration (IC50) in experiment [1] (setting [3]) was under 100 nM. The concentration for a half-maximal effect (EC50) in experiment [2] (setting [4]) is under 100 nM.
Consider `C[C@@H](C(=O)N(C)[C@@H](CC(C)(C)C)C(=O)N1C[C@]2(C[C@H]1C#N)C(=O)Nc1ccccc12)N1CCCC1=O` [Example 152], for which, in experiment [1] (setting [3]), the IC50 is 100 to 1000 nM. For the same molecule, the EC50 in experiment [2] (setting [4]) lay within 100 to 1000 nM.
Turning to `CC(C)[C@@H](NC(=O)OCc1ccccc1)C(=O)N[C@@H](CC(C)(C)C)C(=O)N1C[C@]2(C[C@H]1C#N)C(=O)Nc1ccccc12` [Example 87], in experiment [2], the concentration for a half-maximal effect (EC50) was over 1000 nM.
On to `CC(C)OC(=O)N[C@H](C(=O)N(C)[C@@H](Cc1ccccc1)C(=O)N1C[C@]2(C[C@H]1C#N)C(=O)Nc1ccccc12)C(C)(C)C` [Example 31], for which the EC50 in experiment [2] (setting [4]) was under 100 nM.
`CC(C)(C)C[C@H](NC(=O)[C@H](CC1CC1)NC(=O)OC1CC1)C(=O)N1C[C@]2(C[C@H]1C#N)C(=O)Nc1ccccc12` [Example 311]: the concentration for half-maximal inhibition (IC50) in experiment [1] (setting [3]) was under 100 nM.
As for `C[C@@H]1NC(=O)CCCCCc2ccc3c(c2)[C@@]2(C[C@@H](C#N)N(C2)C(=O)[C@H](CC(C)(C)C)NC1=O)C(=O)N3` [Example 375], in experiment [1] (setting [3]), the IC50 was over 1000 nM.
For the molecule `CN(C(=O)[C@@H]1CC[C@@H](C(F)(F)F)N1)[C@@H](CC(C)(C)C)C(=O)N1C[C@]2(C[C@H]1C#N)C(=O)Nc1ccccc12` [Example 233], the 50% inhibitory concentration (IC50) in experiment [1] (setting [3]) was under 100 nM.
`C[C@H](NC(=O)c1ccc(S(C)(=O)=O)cc1)C(=O)N(C)[C@@H](CC(C)(C)C)C(=O)N1C[C@]2(C[C@H]1C#N)C(=O)Nc1ccccc12` [Example 287]: the IC50 in experiment [1] (setting [3]) was under 100 nM.
Same read-out and setting: the value for `CC(C)C[C@@H](C(=O)N1C[C@]2(C[C@H]1C#N)C(=O)Nc1ccccc12)N(C)C(=O)[C@H](C)NC(=O)c1ccc(C(F)(F)F)cc1C(F)(F)F` [Example 291] was under 100 nM; that for `C[C@H](NC(=O)c1cc2ccccc2n1-c1ccccc1)C(=O)N(C)[C@@H](CC(C)(C)C)C(=O)N1C[C@]2(C[C@H]1C#N)C(=O)Nc1ccccc12` [Example 281] was under 100 nM; that for `CC(C)N1[C@H](C(=O)N(C)[C@@H](CC(C)(C)C)C(=O)N2C[C@]3(C[C@H]2C#N)C(=O)Nc2ccccc23)C[C@@H]2CCC[C@@H]21` [Example 178] was under 100 nM.
On the same count and under the same terms, under `C[C@H](NC(=O)c1cccc2cc(F)ccc12)C(=O)N(C)[C@@H](CC(C)(C)C)C(=O)N1C[C@]2(C[C@H]1C#N)C(=O)Nc1ccccc12` [Example 215] stands under 100 nM; under `C[C@H](NC(=O)c1cccc2ccc(Cl)cc12)C(=O)N(C)[C@@H](CC(C)(C)C)C(=O)N1C[C@]2(C[C@H]1C#N)C(=O)Nc1ccccc12` [Example 294], under 100 nM.
The same measure, in the same setting: under `CC(C)OC(=O)OCN1C(=O)[C@]2(C[C@@H](C#N)N(C(=O)[C@H](CC3CC3)N(C)C(=O)[C@H](C)NC(=O)C(F)(F)C(F)(F)F)C2)c2ccccc21` [Example 350] stands 100 to 1000 nM; under `CC(C)(C)C[C@H](NC(=O)[C@@H](NC(=O)C1(c2ccccc2)CC1)c1ccccc1)C(=O)N1C[C@]2(C[C@H]1C#N)C(=O)Nc1ccccc12` [Example 248], under 100 nM; under `C[C@H](NC(=O)C(F)(F)F)C(=O)N(C)[C@@H](CC1CC1)C(=O)N1C[C@]2(C[C@H]1C#N)C(=O)Nc1ccccc12` [Example 203], under 100 nM.
As for `C[C@H](NC(=O)C(F)(F)C(F)(F)F)C(=O)N(C)[C@@H](CC(C)(C)C)C(=O)N1C[C@]2(C[C@H]1C#N)C(=O)N(C)c1ccccc12` [Example 348], in experiment [1] (setting [3]), the 50% inhibitory concentration (IC50) was under 100 nM.
With `C[C@H](NC(=O)/C=C/c1ccc(F)cc1)C(=O)N(C)[C@@H](CC(C)(C)C)C(=O)N1C[C@]2(C[C@H]1C#N)C(=O)Nc1ccccc12` [Example 242], the IC50 in experiment [1] (setting [3]) was under 100 nM.
For the molecule `CCN(C(=O)[C@H](C)NC(=O)c1c(F)cc(F)cc1F)[C@@H](CC(C)C)C(=O)N1C[C@]2(C[C@H]1C#N)C(=O)Nc1ccccc12` [Example 362], the IC50 in experiment [1] (setting [3]) was under 100 nM.
On the same count and under the same terms, under `CCN1C[C@H]2C[C@H]2[C@H]1C(=O)N(C)[C@@H](CC(C)C)C(=O)N1C[C@]2(C[C@H]1C#N)C(=O)Nc1ccccc12` [Example 254] stands 100 to 1000 nM; under `CC(C)C[C@@H](C(=O)N1C[C@]2(C[C@H]1C#N)C(=O)Nc1ccccc12)N(C)C(=O)[C@H](C)NC(=O)C1(F)CC1` [Example 296], under 100 nM.
Regarding `C[C@H](NC(=O)C(F)(F)C(F)(F)C(F)(F)F)C(=O)N(C)[C@@H](C)C(=O)N1C[C@]2(C[C@H]1C#N)C(=O)Nc1ccccc12` [Example 198], in experiment [1] (setting [5]), the half-maximal inhibitory concentration (IC50) was under 100 nM.
